Data published in patent US20090215760A1, “SYNERGISTIC INSECTICIDE MIXTURES” (priority 2004, published 2009).

What was measured:
Type in all cases: in vivo
[1] = test system: Plutella xylostella, normal sensitive strain; test: Plutella xylostella test (normal sensitive strain), cabbage leaf dip; details: single active compound
Description: (§1) The action expected for a given combination of two active components can be calculated as follows (cf. Colby, S. R., “Calculating Synergistic and Antagonistic Responses of Herbicide Combinations”, Weeds 15, pages 20-22, 1967):
(§2) if • X stands for the death rate expressed as % of the untreated controls on application of active component A at an applied amount of m ppm • Y for the death rate expressed as % of the untreated controls on application of active component B at an applied amount of n ppm • E for the death rate expressed as % of the untreated controls on application of active components A and B at applied amount of m and n ppm • then
(§3) If the actual insecticidal death rate is greater than calculated, the combination is superadditive in its death rate, i.e. there is a synergistic effect. In this case the death rate actually observed must be greater than the value for the expected death rate (E) calculated from the above equation.
Plutella xylostella Test (Normal Sensitive Strain)
(§4) To prepare a suitable formulation of the active material 1 part by weight of the active material is mixed with the given amounts of solvent and emulsifier and the concentrate is diluted to the desired concentration with water containing the emulsifier.
Cabbage leaves (Brassica oleracea) are treated by dipping into the active mixture formulation at the desired concentration and infected with the caterpillar of the diamondback (cabbage) moth (Plutella xylostella, normal sensitive strain) while the leaves are still moist.
(§5) After the desired time the death rate is calculated as %, where 100% means that all caterpillars were killed, 0% that no caterpillars were killed. The death rates are calculated by the Colby equation.

Myzus persicae = Myzus persicae test, cabbage leaf dip; details: single active compound
Description: as §1, §2, §3, §4
Cabbage leaves (Brassica oleracea) which are highly infected by the green peach aphid (Myzus persicae) are treated by dipping into the active mixture formulation of the desired concentration.
After the desired time the death rate is calculated as %, where 100% means that all aphids were killed, 0% that no aphids were killed. The death rates were calculated by the Colby equation.

Spodoptera frugiperda = Spodoptera frugiperda test, cabbage leaf dip; details: 4 ppm, single active compound
Description: as §1, §2, §3
Spodoptera frugiperda Test […]
as §5

[2] = 4 ppm, 6 d (Table B, clothianidin series)

| SMILES | Death rate in % after 6 d ([1]; 4 ppm) [%] | Death rate in % after 6 d (Myzus persicae; [2]) [%] | Death rate in % after 6 d (Spodoptera frugiperda) [%] | other results |
| --- | --- | --- | --- | --- |
| CN/C(=N\[N+](=O)[O-])NCc1cnc(Cl)s1 [Clothianidin] | 10 | 0 | – | – |
| CC[S+]([O-])c1c(C#N)nn(-c2c(Cl)cc(C(F)(F)F)cc2Cl)c1N (stereo not drawn) [Ethiprole, ethiprole] | 0 | 0 | 0 | Death rate in % after 4 d ([1]; 20 ppm): 35%; Death rate in % after 6 d (Myzus persicae; 0.8 ppm, 6 d (Table B, imidacloprid series)): 0%; Death rate in % after 6 d (Myzus persicae; 4 ppm, 6 d (Table B, thiacloprid series)): 10% |
| O=[N+]([O-])/N=C1\NCCN1Cc1ccc(Cl)nc1 [Imidacloprid] | – | – | 15 | Death rate in % after 6 d (Myzus persicae; 0.16 ppm, 6 d (Table B, imidacloprid series)): 0% |
| N#C/N=C1\SCCN1Cc1ccc(Cl)nc1 [Thiacloprid] | – | – | – | Death rate in % after 4 d ([1]; 4 ppm): 0%; Death rate in % after 6 d (Myzus persicae; 0.8 ppm, 6 d (Table B, thiacloprid series)): 15% |
